Measurements: patent US20210161999A1, “COMPOSITIONS AND METHODS RELATED TO OVERCOMING INNATE IMMUNE BARRIERS TO CANCER IMMUNOTHERAPY” (Health Research, Inc., priority 2018, published 2021)
“Also recorded” adds a separate entry of the source.

Assays:
[1] = system: PMN suppressor phenotype (suppression of anti-CD3/CD28-stimulated T cell proliferation); test: Coculture of PMN with ascites supernatants and anti-CD3/CD28-stimulated T cells; T cell proliferation by [3H] thymidine incorporation; assay type: cell-based, human
Method: Freshly isolated T cells (1e5) were stimulated with anti-CD3/CD28 Dynabeads (2.5 μl; Thermo Fisher Scientific) and cocultured with autologous PMN (1:1) and ascites supernatants (50% final well volume) in an incubator at 37° C., 5% CO2. After 72 h, [^3H] thymidine (1 μCi per well) was added and allowed to incorporate for 16-18 h. Cells were harvested onto a Filtermat and counted on a Beta counter. Results are expressed as net cpm [calculated by subtracting the average cpm of unstimulated T cells from the average cpm of stimulated T cells].
Where indicated, T cells, PMN, and ascites supernatants underwent various pretreatments. Where indicated, T cells were pretreated for lh with neutralizing antibody against ICAM-I (1-10 μg), IgG1 isotype (1-10 μg), or media (RPMI 1640, 5-10% heat-inactivated FBS, HEPES, sodium pyruvate, non-essential amino acids, and penicillin-streptomycin).
Where indicated, PMN were pretreated for lh with neutralizing antibody against CD11b (1-10 μg), TGF-beta receptor 1 (1-10 μg) or IgG1 isotype (1-10 μg); thapsigargin (THG, 0.5-2 μM), diphenyleneiodonium (DPI, 1-25 μM), N-Formylmethionine-leucyl-phenylalanine (fMLF, 1-100 nM), brefeldin-A (1-10 μg/mL), ER export inhibitor 1 (Exol, 20-75 μM), CI-amidine (10-20 μM), SNARE decoys: TAT-SNAP23 (0.6-0.9 μg/mL), TAT-SYN4 (0.6-0.9 μg/mL), TAT-GST (0.6-0.9 μg/mL) (produced as described in the laboratory of Dr. Kenneth McLeish), puromycin and actinomycin-D (1-5 μg/mL), or with media.
Where indicated, ascites supernatants were pretreated with heat (56° C., lh) to denature heat-labile constituents or proteinase-K (100 μM, 37° C., 12 h) to degrade proteins. Two formulations of compstatin, a peptide C3 inhibitor, were used: CS (250 μM, 30° C., 2 h, Tocris) and Cp40 (1.25-20 μM, 30° C., 2 h), as well as a scramble peptide. In separate studies, ascites supernatants were ultra-centrifuged (100,000g, 4° C., 1.5 h) to separate the membrane-rich (MR-ASC) and membrane-depleted (MD-ASC) fractions. In others, ascites supernatants were pretreated for lh with neutralizing antibody against C5 (0.5-1.0 μg, A217; Quidel, San Diego, Calif.) or C7 (0.5-1.0 μg, A221; Quidel) or IgG1 isotype (0.5-1.0 μg), or with OmCI (0.6-1.2 μM), a peptide C5 inhibitor derived from the saliva of Ornithodoros moubata (35, 36).

[2] = PMN viability (PI neg, Annexin-V neg) after exposure to treated ascites; details: human, PMN (neutrophils) exposed to peptide-treated ascites
Method: (§1) Where indicated, cells were pelleted for immunophenotyping and supernatants were saved for ELISA at time points throughout coculture. Viability was assessed by staining with Annexin V and/or PI (Dead Cell Apoptosis Kit, V13241, Thermo Fisher Scientific), following the manufacturer's protocols. For surface phenotyping and intracellular staining, cells were stained in buffer (DPBS, 1% BSA, 2 mM EDTA) and Cytofix/Cytoperm buffer kit (BD Biosciences), respectively, following the manufacturer's protocols. Data were analyzed using FCS Express 6.

PMN = test: as above; details: 24 h exposure to Cp40-treated ascites
Method: as §1

[3] = system: iC3b/C3b deposition on PMN; test: Deposition of iC3b/C3b on PMN after 1.5 h coculture (clone 3E7/C3b); assay type: cell-based, human; details: PMN and T cells cocultured in treated ASC for 1.5 h (n=3 ASC)
Method: FIG. 16. Complement activation in ASC results in C3b/iC3b deposition on PMN and mediates the PMN suppressor phenotype via the AP and classical pathways. A) Activation of complement in ASC principally occurs via the AP and classical pathways, though inter-patient variability was observed. ASC were assessed for complement activity by WIESLAB ELISA kits that detect formation of C5b-9. Percent (%) activity is in relation to the provided positive control (n=38 ASC, **, p=0.0015; ****, p<0.0001). […] C) PMN and T cells were cocultured in media, ASC, Cp40-ASC, or SCR-ASC for 1.5 h. Deposition of iC3b/C3b (clone 3E7/C3b recognizes both C3b and iC3b) on PMN was increased with ASC versus media, while iC3b/C3b deposition on T cells was unaffected by ASC (not shown). iC3b/C3b binding to PMN was decreased by Cp40-ASC, and unaffected by SCR-ASC (n=3 ASC).

TALs = test: Coculture of TALs with autologous ascites and healthy donor PMN; anti-CD3/CD28-stimulated proliferation; assay type: cell-based, human; details: Cp40-ASC; TALs from n=3 patients, PMN from healthy donors
Text: FIG. 15. Inhibition of complement C3 activation abrogates the PMN suppressor phenotype induced by malignant effusions. […] The abrogation effect of Cp40 was highly robust, and was observed consistently in at least 10 separate experiments and 15 different ascites samples. […] C) Cryopreserved or fresh TALs (from n=3 patients) were cocultured with autologous ASC and/or PMN from healthy donors. […] Statistics are by ANOVA as compared to +CD3/CD28+ ASC+PMN (*, p<0.05; **, p<0.01; ***, p<0.001).
Inhibition of C3 abrogates neutrophil suppressor phenotype on EOC TALs In patients with metastatic EOC, tumor antigen-specific CD8^+ T cells have impaired effector function and increased co-expression of PD-1 and LAG-3 compared to circulating lymphocytes, and effector function was enhanced with blockade of PD-1 and LAG-3. We confirmed high expression of PD-1 and LAG-3 on TALs from the ascites of patients with newly diagnosed EOC (not shown). We next cocultured cryopreserved or fresh TALs from 3 patients with autologous ascites and/or neutrophils from healthy donors.

In the case of `CC[C@H](C)[C@H](NC(=O)[C@H](N)Cc1ccc(O)cc1)C(=O)N[C@H]1CSSC[C@@H](C(=O)N(C)[C@H](C(N)=O)[C@@H](C)CC)NC(=O)[C@H](CCCNC(=N)N)NC(=O)[C@H](Cc2c[nH]cn2)NC(=O)[C@H](C)NC(=O)CN(C)C(=O)[C@H](Cc2c[nH]c3ccccc23)NC(=O)[C@H](CC(=O)O)NC(=O)[C@H](CCC(N)=O)NC(=O)[C@H](Cc2cn(C)c3ccccc23)NC(=O)[C@H](C(C)C)NC1=O` [Cp40], the “effect on PMN suppressor phenotype” value ([1]; added to ASC 2 h prior to coculture with PMN and T cells, CS 250 μM, Cp40 20 μM, scramble peptide 20 μM) is reported as “completely abrogated the PMN suppressor phenotype; also recorded: fully abrogated the PMN suppressor phenotype; also recorded: completely abrogated the neutrophil suppressor phenotype”, the “Cp40 concentration sufficient to abrogate the PMN suppressor phenotype” value ([1]; concentration-titration study, FIG. 15B) is reported as 2.5-20 ∥M and the “Cp40 concentration sufficient to fully abrogate the PMN suppressor phenotype” value ([1]; titration study, ASC pretreated (n=3)) is reported as 5 µM. For the same molecule, the viability at 24 h, 20 µM [2] was 68 ± 8%, the “neutrophil viability versus untreated or scramble peptide-treated ascites” value (PMN) was “similar” and the “iC3b/C3b binding to PMN” value [3] was “reduced; also recorded: decreased”. The “effect on suppression of stimulated TAL proliferation” value (TALs) was “fully abrogated”.
